Laboratory results reported in patent US10287297B2, “Epoxyazulene derivatives useful for treating cancer and diabetes” (The United States of America, as represented by the …, priority 2015, dated 2019).

Assays:
Assay type in all cases: cell-based
MOLT-4 = test: NCI 60 cell assay, leukemia MOLT-4; settings: Homo sapiens, 48 h; MOLT-4 (leukemia); drug exposure two days, SRB endpoint; read-out: GI-50 value
Experimental: (§1) Samples were tested in the standard National Cancer Institute 60-cell line protocol. First, they were tested against all 60 cell lines in a single final concentration of 10 micromolar. Then, they were separately tested in five 10-fold dilutions. The drug exposure was two days, with an SRB endpoint.

SR = test: NCI 60 cell assay, leukemia SR; settings: Homo sapiens, 48 h, drug exposure two days, SRB endpoint, read-out: GI-50 value
Experimental: as §1

A549/ATCC = test: NCI 60 cell assay, NSCLC A549/ATCC; settings: Homo sapiens, 48 h, drug exposure two days, SRB endpoint, read-out: GI-50 value
Experimental: as §1

NCI-H23 = test: NCI 60 cell assay, NSCLC NCI-H23; settings: Homo sapiens, 48 h, drug exposure two days, SRB endpoint, read-out: GI-50 value
Experimental: as §1

NCI-H460 = test: NCI 60 cell assay, NSCLC NCI-H460; settings: Homo sapiens, 48 h, drug exposure two days, SRB endpoint, read-out: GI-50 value
Experimental: as §1

NCI-H522 = test: NCI 60 cell assay, NSCLC NCI-H522; settings: Homo sapiens, 48 h, drug exposure two days, SRB endpoint, read-out: GI-50 value
Experimental: as §1

COLO 205 = test: NCI 60 cell assay, colon COLO 205; settings: Homo sapiens, 48 h; COLO 205 (colon); drug exposure two days, SRB endpoint; read-out: GI-50 value
Experimental: as §1

HCC-2998 = test: NCI 60 cell assay, colon HCC-2998; settings: Homo sapiens, 48 h; HCC-2998 (colon); drug exposure two days, SRB endpoint; read-out: GI-50 value
Experimental: as §1

HT29 = test: NCI 60 cell assay, colon HT29; settings: Homo sapiens, HT-29, 48 h, drug exposure two days, SRB endpoint, read-out: GI-50 value
Experimental: as §1

SF-268 = test: NCI 60 cell assay, CNS SF-268; settings: Homo sapiens, 48 h; SF-268 (CNS); drug exposure two days, SRB endpoint; read-out: GI-50 value
Experimental: as §1

SF-295 = test: NCI 60 cell assay, CNS SF-295; settings: Homo sapiens, 48 h; SF-295 (CNS); drug exposure two days, SRB endpoint; read-out: GI-50 value
Experimental: as §1

SF-539 = test: NCI 60 cell assay, CNS SF-539; settings: Homo sapiens, 48 h; SF-539 (CNS); drug exposure two days, SRB endpoint; read-out: GI-50 value
Experimental: as §1

U251 = test: NCI 60 cell assay, CNS U251; settings: Homo sapiens, U-251, 48 h, drug exposure two days, SRB endpoint, read-out: GI-50 value
Experimental: as §1

MALME-3M = test: NCI 60 cell assay, melanoma MALME-3M; settings: Homo sapiens, 48 h; MALME-3M (melanoma); drug exposure two days, SRB endpoint; read-out: GI-50 value
Experimental: as §1

MDA-MB-435 = test: NCI 60 cell assay, melanoma MDA-MB-435; settings: Homo sapiens, 48 h; MDA-MB-435 (melanoma); drug exposure two days, SRB endpoint; read-out: GI-50 value
Experimental: as §1

SK-MEL-28 = test: NCI 60 cell assay, melanoma SK-MEL-28; settings: Homo sapiens, 48 h; SK-MEL-28 (melanoma); drug exposure two days, SRB endpoint; read-out: GI-50 value
Experimental: as §1

SK-MEL-5 = test: NCI 60 cell assay, melanoma SK-MEL-5; settings: Homo sapiens, 48 h; SK-MEL-5 (melanoma); drug exposure two days, SRB endpoint; read-out: GI-50 value
Experimental: as §1

UACC-257 = test: NCI 60 cell assay, melanoma UACC-257; settings: Homo sapiens, 48 h; UACC-257 (melanoma); drug exposure two days, SRB endpoint; read-out: GI-50 value
Experimental: as §1

UACC-62 = test: NCI 60 cell assay, melanoma UACC-62; settings: Homo sapiens, 48 h; UACC-62 (melanoma); drug exposure two days, SRB endpoint; read-out: GI-50 value
Experimental: as §1

IGROV1 = test: NCI 60 cell assay, ovarian IGROV1; settings: Homo sapiens, IGROV-1, 48 h, drug exposure two days, SRB endpoint, read-out: GI-50 value
Experimental: as §1

OVCAR-4 = test: NCI 60 cell assay, ovarian OVCAR-4; settings: Homo sapiens, 48 h; OVCAR-4 (ovarian); drug exposure two days, SRB endpoint; read-out: GI-50 value
Experimental: as §1

OVCAR-5 = test: NCI 60 cell assay, ovarian OVCAR-5; settings: Homo sapiens, 48 h; OVCAR-5 (ovarian); drug exposure two days, SRB endpoint; read-out: GI-50 value
Experimental: as §1

NCI/ADR-RES = test: NCI 60 cell assay, ovarian NCI/ADR-RES; settings: Homo sapiens, 48 h, drug exposure two days, SRB endpoint, read-out: GI-50 value
Experimental: as §1

SK-OV-3 = test: NCI 60 cell assay, ovarian SK-OV-3; settings: Homo sapiens, 48 h; SK-OV-3 (ovarian); drug exposure two days, SRB endpoint; read-out: GI-50 value
Experimental: as §1

A498 = test: NCI 60 cell assay, renal A498; settings: Homo sapiens, 48 h, drug exposure two days, SRB endpoint, read-out: GI-50 value
Experimental: as §1

ACHN = test: NCI 60 cell assay, renal ACHN; settings: Homo sapiens, 48 h, drug exposure two days, SRB endpoint, read-out: GI-50 value
Experimental: as §1

CAKI-1 = test: NCI 60 cell assay, renal CAKI-1; settings: Homo sapiens, 48 h; CAKI-1 (renal); drug exposure two days, SRB endpoint; read-out: GI-50 value
Experimental: as §1

TK-10 = test: NCI 60 cell assay, renal TK-10; settings: Homo sapiens, 48 h; TK-10 (renal); drug exposure two days, SRB endpoint; read-out: GI-50 value
Experimental: as §1

HS 578T = test: NCI 60 cell assay, breast HS 578T; settings: Homo sapiens, 48 h; HS 578T (breast); drug exposure two days, SRB endpoint; read-out: GI-50 value
Experimental: as §1

BT-549 = test: NCI 60 cell assay, breast BT-549; settings: Homo sapiens, 48 h; BT-549 (breast); drug exposure two days, SRB endpoint; read-out: GI-50 value
Experimental: as §1

T-47D = test: NCI 60 cell assay, breast T-47D; settings: Homo sapiens, T47D, 48 h; T-47D (breast); drug exposure two days, SRB endpoint; read-out: GI-50 value
Experimental: as §1

MDA-MB-468 = test: NCI 60 cell assay, breast MDA-MB-468; settings: Homo sapiens, 48 h; MDA-MB-468 (breast); drug exposure two days, SRB endpoint; read-out: GI-50 value
Experimental: as §1

With `CC(=O)O[C@@H]1C[C@]2(C(C)C)O[C@@]1(C)[C@@H]1CCC(C)=C1[C@@H]2OC(=O)C=Cc1ccccc1` [(Im), (3aR,4S,5R,7R,8S)-5-acetoxy-7-isopropyl-1,4-dimethyl-2,3,3a,4,5,6,7,8-octahydro-4,7-epoxyazulen-8-yl cinnamate] as the molecule, how does the GI50 (MOLT-4) read?
The GI50 was 27 µM.

What about the GI50 (SR) of the same molecule?
The GI50 was 32 µM.

What about the GI50 (A549/ATCC) of the same molecule?
Its GI50 is 47 µM.

And the GI50 (NCI-H23)?
The GI50 was 35 µM.

And the GI50 (NCI-H460)?
Its GI50 is 31 µM.

And the GI50 (NCI-H522)?
Its GI50 is 21 µM.

What about the GI50 (COLO 205) of the same molecule?
The GI50 was 32 µM.

And the GI50 (HCC-2998)?
Its GI50 is 68 µM.

And the GI50 (HT29)?
Its GI50 is 31 µM.

What about the GI50 (SF-268) of the same molecule?
Its GI50 is 35 µM.

And the GI50 (SF-295)?
Its GI50 is 39 µM.

What about the GI50 (SF-539) of the same molecule?
Its GI50 is 100 µM.

And the GI50 (U251)?
The GI50 was 48 µM.

And the GI50 (MALME-3M)?
The GI50 was 39 µM.

And the GI50 (MDA-MB-435)?
Its GI50 is 39 µM.

And the GI50 (SK-MEL-28)?
Its GI50 is 69 µM.

And the GI50 (SK-MEL-5)?
Its GI50 is 22 µM.

What about the GI50 (UACC-257) of the same molecule?
Its GI50 is 28 µM.

What about the GI50 (UACC-62) of the same molecule?
Its GI50 is 26 µM.

What about the GI50 (IGROV1) of the same molecule?
Its GI50 is 100 µM.

And the GI50 (OVCAR-4)?
The GI50 was 11 µM.

And the GI50 (OVCAR-5)?
The GI50 was 100 µM.

And the GI50 (NCI/ADR-RES)?
The GI50 was 23 µM.

And the GI50 (SK-OV-3)?
The GI50 was 71 µM.

And the GI50 (A498)?
Its GI50 is 2.2 µM.

And the GI50 (ACHN)?
The GI50 was 4.5 µM.

What about the GI50 (CAKI-1) of the same molecule?
Its GI50 is 13 µM.

And the GI50 (TK-10)?
The GI50 was 93 µM.

What about the GI50 (HS 578T) of the same molecule?
The GI50 was 4.8 µM.

And the GI50 (BT-549)?
Its GI50 is 51 µM.

What about the GI50 (T-47D) of the same molecule?
The GI50 was 20 µM.

And the GI50 (MDA-MB-468)?
The GI50 was 24 µM.

What does the source list for `CC1=C2[C@@H](CC1)[C@]1(C)O[C@@](C(C)C)(C[C@H]1OC(=O)CO)[C@H]2OC(=O)/C=C/c1ccccc1` [Compound (Ih)]?
GI50 (MOLT-4): 40 µM; GI50 (SR): 32 µM; GI50 (A549/ATCC): 33 µM; GI50 (NCI-H23): 42 µM; GI50 (NCI-H460): 37 µM; GI50 (NCI-H522): 40 µM; GI50 (COLO 205): 44 µM; GI50 (HCC-2998): 100 µM; GI50 (HT29): 39 µM; GI50 (SF-268): 2.6 µM; GI50 (SF-295): 40 µM; GI50 (SF-539): 40 µM; GI50 (U251): 35 µM; GI50 (MALME-3M): 43 µM; GI50 (MDA-MB-435): 43 µM; GI50 (SK-MEL-28): 42 µM; GI50 (SK-MEL-5): 35 µM; GI50 (UACC-257): 40 µM; GI50 (UACC-62): 100 µM; GI50 (IGROV1): 46 µM; GI50 (OVCAR-4): 35 µM; GI50 (OVCAR-5): 41 µM; GI50 (NCI/ADR-RES): 0.13 µM; GI50 (SK-OV-3): 44 µM; GI50 (A498): 0.034 µM; GI50 (ACHN): 0.022 µM; GI50 (CAKI-1): 1.07 µM; GI50 (TK-10): 100 µM; GI50 (HS 578T): 0.015 µM; GI50 (BT-549): 0.14 µM; GI50 (T-47D): 27 µM; GI50 (MDA-MB-468): 33 µM
